Results taken from PMC9878345 (Frontiers in Chemistry, 2023).
pIC50: −log10 of the molar value. Where “and” joins values, the source holds several entries; their conditions need not be identical. Identical values can stand only once. Like-named read-outs stand apart in the source and are kept apart here.

Tests used:
SARS-CoV-2 PLpro [1] = molecular target: T1, SARS-CoV-2 PLpro (Severe acute respiratory syndrome coronavirus 2, UniProt P0DTD1); assay: biochemical
SARS-CoV-2 PLpro [2] = molecular target: T1, SARS-CoV-2 PLpro; assay: biochemical; assay type: biochemical; conditions: for pIC50 / IC50, PLpro proteolytic activity (Figure 5) / IC50 towards PLpro proteolytic activity: dose-dependent study; for pIC50 / IC50 towards PLpro proteolytic activity: 0–100 µM, non-linear regression; for inhibition at 200 µM / inhibition at 50 µM / inhibition at 100 µM: read-out: inhibition of PLpro proteolytic activity; for inhibitory activity towards PLpro proteolytic activity (in words): at the tested concentrations (50, 100, 200 μM); for inhibition activity in SARS-CoV-2 PLpro enzymatic activity: concentration not stated
Vero-E6 cells = assay: Cell viability assay (PrestoBlue); assay type: cell-based, African green monkey; conditions: for cytotoxicity (in words): 24, 48, 72 h at 50, 100, 200 µM; for cytotoxicity: at the tested doses and time points
Protocol: The cytotoxic effect of selected phytochemicals were carried out with Vero-E6 cells using PrestoBlue™ Cell Viability kit as described earlier ([Lewis et al., 2022]). Briefly, Vero-E6 cells (20,000 cells) were seeded overnight in 96 well plates. Then, 100 µL of complete media (EMEM+10% FBS+1%Pen/Strep) was added to refresh the cells along with 50, 100, and 200 µM selected phytochemicals, and incubation was continued for 24, 48, and 72 hs at 37°C respectively. Cytotoxicity detection regent (PrestoBlue solution) was added and incubated for additional 1h at 37°C. The absorbance was taken at 530/25 excitation and 590/35 nm emission using Bio-Tek Synergy HT fluorescent plate reader.

[3] = read-out: inhibition of PLpro DUB activity
[4] = read-out: IC50 towards PLpro proteolytic activity

`O=c1c2cc(O)c(O)cc2oc2cc(O)c([C@@H]3O[C@H](CO)[C@@H](O)[C@H](O)[C@H]3O)c(O)c12` [mangiferin, 2-β-D-glucopyranosyl-1,3,6,7-tetrahydroxy-9H-xanthan-9-one] was tested, and the pIC50 (SARS-CoV-2 PLpro [1]) was 3.98, the inhibition at 200 µM (SARS-CoV-2 PLpro [1]; [3]) was 10 to 30% and the pIC50 (SARS-CoV-2 PLpro [2]; IC50 towards PLpro proteolytic activity) was 4.02 and 4.36. The “inhibition of PLpro proteolytic activity” value (SARS-CoV-2 PLpro [2]; concentration not given) was 70%, the inhibition at 200 µM (SARS-CoV-2 PLpro [2]) was over 50% and the “cytotoxicity (in words)” value (Vero-E6 cells) was “not c ytotoxic”.
For `C[C@@H]1CC[C@H]2[C@@H](C)C(=O)O[C@@H]3O[C@@]4(C)CC[C@@H]1[C@]32OO4` [artemisinin, reference compound], the “inhibitory activity towards PLpro proteolytic activity (in words)” value (SARS-CoV-2 PLpro [2]) was “did not show inhibitory activity”.
`COc1ccc2cc1Oc1ccc(cc1)C[C@H]1c3cc(c(OC)cc3CCN1C)Oc1c(OC)c(OC)cc3c1[C@H](C2)N(C)CC3` [tetrandrine] was tested, and the “inhibitory activity towards PLpro proteolytic activity (in words)” value (SARS-CoV-2 PLpro [2]) was “only colchicine out of all the tested alkaloids”.
`C[C@@H]1O[C@@H](OC[C@H]2O[C@@H](Oc3c(-c4ccc(O)c(O)c4)oc4cc(O)cc(O)c4c3=O)[C@H](O)[C@@H](O)[C@@H]2O)[C@H](O)[C@H](O)[C@H]1O` [rutin] showed an inhibition at 50 µM (SARS-CoV-2 PLpro [2]) of 70%, an inhibition at 100 µM (SARS-CoV-2 PLpro [2]) of 70% and an inhibition at 200 µM (SARS-CoV-2 PLpro [2]) of 88%. The “cytotoxicity (in words)” value (Vero-E6 cells) was “not c ytotoxic”.
For `O=c1c(O)c(-c2cc(O)c(O)c(O)c2)oc2cc(O)cc(O)c12` [myricetin, 3,5,7, 3′, 4′, 5′-hexahydroxyflavone], the cytotoxicity (Vero-E6 cells) was 20-30%.
For `O=c1c(-c2ccc(O)cc2)coc2cc(O[C@@H]3O[C@H](CO)[C@@H](O)[C@H](O)[C@H]3O)ccc12` [daidzin], the “inhibitory activity towards PLpro proteolytic activity (in words)” value (SARS-CoV-2 PLpro [2]) was “none of the tested isoflavone compounds such as daidzein, daidzin, genistein, genistin, and isoflorentin demonstrated an inhibitory effect”.
In the case of `C=CCSSCC=C` [diallyl disulfide], the “inhibitory activity towards PLpro proteolytic activity (in words)” value (SARS-CoV-2 PLpro [2]) was “did not show inhibitory activity”.
evodiamine was tested, and the “inhibitory activity towards PLpro proteolytic activity (in words)” value (SARS-CoV-2 PLpro [2]) was “only colchicine out of all the tested alkaloids”.
`O=C(/C=C/c1ccc(O)c(O)c1)O[C@H](Cc1ccc(O)c(O)c1)C(=O)O` [rosmarinic acid] showed an inhibition at 200 µM (SARS-CoV-2 PLpro [2]) of 50%.
For `CC1(C)OC(=O)C=C[C@]2(C)[C@H]3CC[C@@]4(C)[C@H](c5ccoc5)OC(=O)[C@H]5O[C@]54[C@]3(C)C(=O)C[C@@H]12` [obacunone], the “inhibitory activity towards PLpro proteolytic activity (in words)” value (SARS-CoV-2 PLpro [2]) was “did not show inhibitory activity”.
For `C=CCSSSCC=C` [diallyl trisulfide], the “inhibitory activity towards PLpro proteolytic activity (in words)” value (SARS-CoV-2 PLpro [2]) was “did not show inhibitory activity”.
For `C/C=C1/[C@H](O[C@@H]2O[C@H](CO)[C@@H](O)[C@H](O)[C@H]2O)OC=C(C(=O)OC)[C@H]1CC(=O)OCCc1ccc(O)c(O)c1` [oleuropein], the pIC50 (SARS-CoV-2 PLpro [1]) was 3.88, the inhibition at 200 µM (SARS-CoV-2 PLpro [1]; [3]) was 50% and the “IC50, PLpro proteolytic activity (Figure 5)” value (SARS-CoV-2 PLpro [2]) was “Ambiguous”. The “IC50 towards PLpro proteolytic activity” value (SARS-CoV-2 PLpro [2]) was “ambiguous”, the inhibition at 200 µM (SARS-CoV-2 PLpro [2]) was 60% and the cytotoxicity (Vero-E6 cells) was 20-30%.
`O.Oc1cc(O)c2c(c1)O[C@H](c1ccc(O)c(O)c1)[C@@H](O)C2` [catechin] was tested, and the “inhibition of PLpro DUB activity” value (SARS-CoV-2 PLpro [1]; 50 μM, vs DMSO control) was 30%, the “inhibition of PLpro DUB activity” value (SARS-CoV-2 PLpro [1]; 100 μM, vs DMSO control) was 40% and the “inhibition of PLpro DUB activity” value (SARS-CoV-2 PLpro [1]; 200 μM, vs DMSO control) was 50%. For the same compound, the “inhibition of PLpro proteolytic activity” value (SARS-CoV-2 PLpro [2]; 50 μM, vs DMSO control) was 25%, the “inhibition of PLpro proteolytic activity” value (SARS-CoV-2 PLpro [2]; 100 μM, vs DMSO control) was 44% and the “inhibition of PLpro proteolytic activity” value (SARS-CoV-2 PLpro [2]; 200 μM, vs DMSO control) was 64%. The pIC50 (SARS-CoV-2 PLpro [2]; [4]) was 4.85.
For `CC(C)=CCc1c(O)cc2oc3cc(O)c(O)c(CC=C(C)C)c3c(=O)c2c1O` [γ-mangostin], the “IC50, PLpro proteolytic activity (Figure 5)” value (SARS-CoV-2 PLpro [2]) was “Ambiguous” and the “IC50 towards PLpro proteolytic activity” value (SARS-CoV-2 PLpro [2]) was “ambiguous”.
For `COc1cc2oc3cc(O)c(OC)c(CC=C(C)C)c3c(=O)c2c(O)c1CC=C(C)C` [β-mangostin, b-Mangostin], the “inhibitory activity towards PLpro proteolytic activity (in words)” value (SARS-CoV-2 PLpro [2]) was “Only γ-mangostin and mangiferin exhibited more than 50% inhibitory activity”.
With `O=C(O[C@@H]1Cc2c(O)cc(O)cc2O[C@@H]1c1cc(O)c(O)c(O)c1)c1cc(O)c(O)c(O)c1` [EGCG, epigallocatechin gallate] the inhibition at 50 µM (SARS-CoV-2 PLpro [1]; 50 μM, vs DMSO control, read-out: inhibition of PLpro DUB activity) was 70%, the inhibition at 100 µM (SARS-CoV-2 PLpro [1]; 100 μM, vs DMSO control, read-out: inhibition of PLpro DUB activity) was 90% and the inhibition at 200 µM (SARS-CoV-2 PLpro [1]; 200 μM, vs DMSO control, read-out: inhibition of PLpro DUB activity) was 95%. The inhibition at 50 µM (SARS-CoV-2 PLpro [2]; 50 μM, vs DMSO control) was 65%, the inhibition at 100 µM (SARS-CoV-2 PLpro [2]; 100 μM, vs DMSO control) was 81% and the inhibition at 200 µM (SARS-CoV-2 PLpro [2]; 200 μM, vs DMSO control) was 97%. For the same compound, the “inhibition activity in SARS-CoV-2 PLpro enzymatic activity” value (SARS-CoV-2 PLpro [2]) was “more than 50%” and the “cytotoxicity (in words)” value (Vero-E6 cells) was “not c ytotoxic”.
With `CC1(C)[C@@H](O[C@H]2O[C@H](C(=O)O)[C@@H](O)[C@H](O)[C@H]2O[C@@H]2O[C@H](C(=O)O)[C@@H](O)[C@H](O)[C@H]2O)CC[C@]2(C)[C@H]3C(=O)C=C4[C@@H]5C[C@@](C)(C(=O)O)CC[C@]5(C)CC[C@@]4(C)[C@]3(C)CC[C@@H]12` [glycyrrhizic acid] the “inhibitory activity towards PLpro proteolytic activity (in words)” value (SARS-CoV-2 PLpro [2]) was “did not show inhibitory activity”.
In the case of `O=c1c(-c2ccc(O)cc2)coc2cc(O)ccc12` [daidzein], the “inhibitory activity towards PLpro proteolytic activity (in words)” value (SARS-CoV-2 PLpro [2]) was “none of the tested isoflavone compounds such as daidzein, daidzin, genistein, genistin, and isoflorentin demonstrated an inhibitory effect”.
In the case of `C=C(C)[C@@H]1CC[C@]2(C(=O)O)CC[C@]3(C)[C@H](CC[C@@H]4[C@@]5(C)CC[C@H](O)C(C)(C)[C@@H]5CC[C@]43C)[C@@H]12` [betulinic acid], the “inhibitory activity towards PLpro proteolytic activity (in words)” value (SARS-CoV-2 PLpro [2]) was “did not show inhibitory activity”.
`O=c1c(-c2ccc(O)cc2)coc2cc(O)cc(O)c12` [genistein] was tested, and the “inhibitory activity towards PLpro proteolytic activity (in words)” value (SARS-CoV-2 PLpro [2]) was “none of the tested isoflavone compounds such as daidzein, daidzin, genistein, genistin, and isoflorentin demonstrated an inhibitory effect”.
With `COc1cc(-c2coc3cc4c(c(OC)c3c2=O)OCO4)cc(OC)c1OC` [isoflorentin] the “inhibitory activity towards PLpro proteolytic activity (in words)” value (SARS-CoV-2 PLpro [2]) was “none of the tested isoflavone compounds such as daidzein, daidzin, genistein, genistin, and isoflorentin demonstrated an inhibitory effect”.
In the case of `O=c1c(-c2ccc(O)cc2)coc2cc(O[C@@H]3O[C@H](CO)[C@@H](O)[C@H](O)[C@H]3O)cc(O)c12` [genistin], the “inhibitory activity towards PLpro proteolytic activity (in words)” value (SARS-CoV-2 PLpro [2]) was “none of the tested isoflavone compounds such as daidzein, daidzin, genistein, genistin, and isoflorentin demonstrated an inhibitory effect”.
In the case of `O=C1C=CC[C@@H]2[C@H]3CCCN4CCC[C@@H](CN12)[C@@H]34` [sophocarpine], the “inhibitory activity towards PLpro proteolytic activity (in words)” value (SARS-CoV-2 PLpro [2]) was “only colchicine out of all the tested alkaloids”.
`O=c1c(O)cc([C@H]2Oc3cc(O)cc(O)c3C[C@H]2O)cc2c([C@H]3Oc4cc(O)cc(O)c4C[C@H]3O)cc(O)c(O)c12` [theaflavin] was tested, and the “inhibition of PLpro DUB activity” value (SARS-CoV-2 PLpro [1]; 50 μM, vs DMSO control) was “complete inhibition”, the pIC50 (SARS-CoV-2 PLpro [1]; dose-dependent study, 0–100 µM, non-linear regression, read-out: IC50 for PLpro DUB activity) was 4.88 and the pIC50 (SARS-CoV-2 PLpro [1]; dose-dependent study, read-out: IC50, PLpro DUB activity (Figure 6)) was 4.88. The inhibition at 50 µM (SARS-CoV-2 PLpro [2]; 50 μM, vs DMSO control) was 94%, the inhibition at 200 µM (SARS-CoV-2 PLpro [2]; 200 μM, vs DMSO control) was 100% and the “inhibition activity in SARS-CoV-2 PLpro enzymatic activity” value (SARS-CoV-2 PLpro [2]) was “more than 50%”. The pIC50 (SARS-CoV-2 PLpro [2]; [4]) was 5.14.
In the case of `CN1Cc2c(ccc3c2OCO3)[C@@H]2[C@H]1c1cc3c(cc1C[C@@H]2O)OCO3` [chelidonine], the “inhibitory activity towards PLpro proteolytic activity (in words)” value (SARS-CoV-2 PLpro [2]) was “only colchicine out of all the tested alkaloids”.
With `O[C@H]1[C@H]2c3cc4c(cc3CN3CCC(=C[C@@H]1O)[C@H]23)OCO4` [lycorine] the “inhibitory activity towards PLpro proteolytic activity (in words)” value (SARS-CoV-2 PLpro [2]) was “only colchicine out of all the tested alkaloids”.
